# Tests used:
# GABABR1a = molecular target: T1, GABABR1a (Homo sapiens, UniProt Q9UBS5); assay: Cell surface binding assay: Fc-tagged APP proteins applied to GABABR-transfected HEK293 cells, bound Fc detected by immunofluorescence; type: cell-based; conditions: Fc-tagged proteins 500 nM, 1 hr at RT; GFP-transfected cells as negative control
# T1 construct: expressed in transfected cells; host or cells: HEK293T
# Description: To confirm the APPα-GABABR interaction and identify the interacting domains, we used a cell-based binding assay. Purified Fc-sAPPα (or its domains) were exogenously applied to GABABR-transfected HEK293 cells. Bound Fc-sAPPα was determined by immunofluorescence.
# (§1) We first determined which GABAB subunit and isoform sAPPα bound. The GABABR is comprised of two subunits, the GABABR1 and the GABABR2 subunit. GABABR1 is present as two main isoforms (1a and 1b), with the only difference between these isoforms being the presence of two protein-binding sushi repeats in the ectodomain of GABABR1a (FIG. 1A-B). […] The sequence of the Sushi domain 1 is […].
# HEK293T cells were transfected with GFP (as negative control) or pdisplay-GABABR-1a, -1b, or -2 plasmids using Fugene6 (Promega). Twenty-four hours after transfection, the cells were incubated with Fc (as negative control) or the various Fc-tagged APP proteins (500 nM, in Dulbecco's modified Eagle's medium [DMEM] supplemented with 20 mM HEPES [pH 7.4]) for 1 hr at RT. After three brief washes with DMEM/20 mM HEPES (pH 7.4), cells were fixed in 4% paraformaldehyde, 4% sucrose in PBS. […] Image thresholding was set with ImageJ software using constant settings per experiment and the area of Fc binding was measured relative to cell area.
# [1] = molecular target: T2, sushi1 domain of GABABR1a (Homo sapiens, UniProt Q9UBS5); assay: Isothermal titration calorimetry (ITC) with purified sushi1; type: binding
# T2 construct: made in house
# T2 sequence (Q9UBS5 26-97): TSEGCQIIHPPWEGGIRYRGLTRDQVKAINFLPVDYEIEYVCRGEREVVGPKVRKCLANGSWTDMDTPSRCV
# Description: as §1
# All ITC experiments were carried out on a MicroCal iTC200 system. For ITC experiments involving APP constructs expressed in HEK293 cells, the purified GABABR1a-Sushi1 domain, sAPPα, CuBDAcD, AcD and CuBD constructs were buffer-exchanged by size exclusion chromatography in 20 mM Na-HEPES pH 7.0, 150 mM NaCl supplemented with 5 mM CaCl2. Concentrated samples were diluted and degassed before the experiment at the concentrations reported in the FIG. legends. sAPP fragments (all of them at 30 μM) were placed in the MicroCal sample cell and matching buffer was placed in the reference cell. Sushi1 (300 μM) was in the syringe and was injected into the cell in a series of 1 μL injections at 25° C. All the datasets were subtracted with a reference data consisting of serial injections of Sushi1 in the cell, containing buffer only under the same conditions. For ITC experiments involving synthetic APP peptides, the Sushi-1 protein was dialysed overnight to PBS buffer. […]
# [2] = system: primary hippocampal neurons; assay: mEPSCs & mIPSCs in cultured primary hippocampal neurons (wild type); type: cell-based, mouse; conditions: acute application, 250 nM each
# Description: mEPSCs & mIPSCs are measured in cultured primary hippocampal neurons at baseline and following acute application of agonists. Excitatory terminals selectively express the sushi domain-containing GABABR1a isoform (ref18), where it functions to inhibit neurotransmitter release (ref 24). Acute exposure of primary hippocampal neurons from wild type mice to 30μM baclofen, a GABABR agonist, or 250 nM sAPPα (Fc cleaved) reduces the frequency of miniature excitatory postsynaptic currents (mEPSCs) by 68% (FIG. 8 a,b) and 39% (FIG. 8 c,d), respectively, with no effect on mEPSC amplitude (FIG. 8e). […] Acute application of 30 μM baclofen or 250 nM purified sAPPα reduces the frequency of miniature inhibitory postsynaptic currents (mIPSCs) by 63% (FIG. 8a, 9a) and 44% (FIG. 8c, 9b), respectively, which is blocked by pretreatment with the GABABR antagonist CGP55845 (CGP, 5 μM) (FIG. 8f, 9d). Application of sAPPα causes a minor (14%) reduction on mIPSC amplitude (FIG. 8e, 9c). […] Baclofen is known to reduce the frequencies of mEPSCs and mIPSCs, which we have also confirmed. […] To confirm that the agonist is acting through GABABR1a, the agonist is tested in cultures with shRNA mediated knockdown of GABABR1a or antisense oligonucleotides mediated exon skipping of the exon encoding the Sushi domain 1 of GABABR1a. Antagonists are tested by treatment in combination with the agonist, Baclofen. […] As an antagonist we test an antibody against the sushi domain sequence (SEQ ID No: 5): […] SWTDMDTPSRCV. An antibody specifically binding to this domain which acts as an antagonist increases the frequencies of mEPSCs and mIPSCs. sAPPα also reduces mEPSC and mIPSC frequency in App/Aplp1 dKO cultures (FIG. 8j, 9f), excluding the possibility that sAPPα interferes with a complex of full-length APP and GABABR1 to exert its effect on GABABR signaling.
# Hippocampal neurons were cultured from E18 C57/B16 wild type mice or APP/APLP1 dKO mice (provided by Ulrike Muller46) and plated on poly-D-lysine (Millipore), and laminin (Invitrogen) coated coverslips (Nalge Nunc International). Neurons were maintained in Neurobasal medium (Invitrogen) supplemented with B27, glucose, glutamax, penicillin/streptomycin (Invitrogen) and 25 μM β-mercaptoethanol.
# Single neurons from wild type or APP/APLP1 null mutant embryos (E18) were recorded within the large neuronal network at DIV 12-15. The intracellular whole-cell pipette medium contained (in mM): 136 KCl, 18 HEPES, 4 Na-ATP, 4.6 MgCl2, 15 Creatine Phosphate, 1 EGTA and 50 U/ml Phospocreatine Kinase (300 mOsm, pH 7.30). Regular external solution contained 2 mM/2 mM Ca2+/Mg2+(in mM: 140 NaCl, 2.4 KCl, 2 CaCl2), 2 MgCl2, 10 HEPES, 14 Glucose (300 mOsm, pH 7.30)) and TTX (1 μM). Pharmacological reagents (30 μM baclofen, 5 μM CGP), sAPLP1, full length sAPP and sAPP derived peptides (250 nM each) were bath applied (dissolved in external medium described above) using a separate gravity driven application inlet. Recordings were done in whole cell voltage clamp configuration at −70 mV with a double EPC-10 amplifier (HEKA Elektronik) under control of Patchmaster v2×32 software (HEKA Elektronik). Currents were low-pass filtered at 3 kHz and stored at 20 kHz. Patch pipettes were pulled from borosilicate glass using a multi-step puller (P-1000; Sutter Instruments). Pipette resistance ranged from 3 to 5 MΩ and was compensated to 75-80%. Only cells with series resistances <15 MΩ were included in analysis. All recordings were done at room temperature. Spontaneous events were detected using Mini Analysis program (Synaptosoft). mEPSCs and mIPSCs were separated on the basis of their distinct decay kinetics, using a threshold of 5 ms47. Baseline was determined from an average of 60 sec of recordings prior to protein or drug treatment. Effect of treatment was determined from an average of 30 sec recordings after 140 sec of protein or drug treatment.
# CA1 pyramidal neurons = assay: Long-term potentiation in hippocampal slices; type: cell-based; conditions: non-primed high frequency stimulation protocol for agonists
# Description: Long-term potentiation (LTP) is induced by stimulation of Schaffer collateral fibers and the response of CA1 pyramidal neurons is measured by extracellular recordings. For measuring antagonists, a primed burst stimulation protocol is used to activate GABABR receptors. Under this protocol, an antagonist blocks induction of LTP. For measuring agonists, a non-primed high frequency stimulation protocol is used.
# T1 sequence (Q9UBS5 20-591 limits assumed): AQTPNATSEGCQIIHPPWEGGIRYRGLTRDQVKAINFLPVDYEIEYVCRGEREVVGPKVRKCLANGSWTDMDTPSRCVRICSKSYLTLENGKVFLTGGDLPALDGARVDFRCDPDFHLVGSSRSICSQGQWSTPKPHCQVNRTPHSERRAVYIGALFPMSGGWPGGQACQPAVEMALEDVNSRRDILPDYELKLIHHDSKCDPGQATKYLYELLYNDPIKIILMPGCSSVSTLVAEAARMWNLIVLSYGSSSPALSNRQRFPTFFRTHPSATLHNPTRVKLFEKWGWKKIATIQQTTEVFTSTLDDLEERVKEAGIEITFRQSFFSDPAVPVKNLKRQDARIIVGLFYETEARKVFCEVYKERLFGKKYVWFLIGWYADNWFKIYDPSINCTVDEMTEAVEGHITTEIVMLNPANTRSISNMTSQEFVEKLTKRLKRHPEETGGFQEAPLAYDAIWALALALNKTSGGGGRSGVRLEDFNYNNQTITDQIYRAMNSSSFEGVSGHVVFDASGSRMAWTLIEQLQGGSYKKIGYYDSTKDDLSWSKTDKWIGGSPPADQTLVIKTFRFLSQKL
substance,measurement,setting,value
"ED: Fc-fusion of the 33 aa extension domain, mouse APP695 195-227aa",binding to GABABR1a-expressing HEK293 cells (immunofluorescence),GABABR1a,sufficient for binding to GABABR1a
"GGADTDYADG (listed as Homo sapiens) [residues 211-220, synthetic peptide within the ExD, 211-220AA of APP695]",binding to sushi1 by ITC (in words),[1],fails to bind
NVDSADAEEDDSDVWWGGADTDYADGSEDKVVE (listed as Homo sapiens) [Extension domain of human sAPPα (33 amino acids)],effect on mEPSC frequency (in words),[2],reduces the frequencies of mEPSCs and mIPSCs
same,effect on mIPSC frequency (in words),[2],reduces the frequencies of mEPSCs and mIPSCs
same,effect on LTP,CA1 pyramidal neurons,facilitates LTP
